# According to paper PMC12612990, “PNA5, a glycosylated angiotensin-(1−7) mas receptor agonist for vascular dementia: A two species toxicology and toxicokinetic study” (Toxicology Reports, 2025):
# Peptide text beside a SMILES is read from it. * marks the point of attachment. βGlc = OC[C@H]1O[C@@H](*)[C@H](O)[C@@H](O)[C@@H]1O
# Legend:
# [1] = Toxicokinetics of PNA5 in Beagle dog plasma; conditions: for Tmax: table: average (range), text b115: median; for AUC0–2hr accumulation ratio: day 28 vs day 1, sexes combined; for fold increase in AUC0–2hr for a 20-fold increase in dose / fold increase in Cmax for a 20-fold increase in dose: 1 to 20 mg/kg/day; for time post-dose up to which PNA5 was quantifiable: days 1 and 28, limit of quantitation 5 ng/mL
# Experimental: Toxicokinetic (TK) of PNA5 was obtained from plasma following a single and repeated subcutaneous injection administration of PNA5 once daily for 28 days. Blood samples were collected on days 1 and 28 at the following time points: pre-dose and at approximately 5, 15, 30, 60, and 120 min post-dose (equivalent to 0.083, 0.25, 0.5, 1, and 2 h).
# For the rat study, a total of 6 rats for each sex were assigned randomly to treatment groups 2–4 (those treated with PNA5). Three rats per sex were assigned to group 1 (vehicle control). Rats were sampled in satellite groups; rats' blood was taken at alternating time points, resulting in a total n = 3 per time point for six animals. For the dog study, three animals per sex were assigned to group 2 and group 3, and five animals per sex were assigned to group 1 and group 4. Blood was collected from canines via venipuncture.
# Blood was collected in heparinized tubes containing a protease inhibitor cocktail consisting of 4 mM 0-phenanthroline, 1.2 mM pepstatin A, and 0.5 M EDTA. Blood samples were centrifuged for 15 min at 2500 x g at room temperature. Plasma was transferred into pre-cooled, pre-labeled collection tubes, frozen immediately in liquid nitrogen/dry ice, and stored at −80 °C until analysis.
# PNA5 levels were analyzed using ultra-high performance liquid chromatography (UHPLC) with tandem mass spectrometric (MS/MS) detection. Precision and accuracy, reproducibility, selectivity, carryover, recovery, matrix effects, dilution integrity, hemolysis, stock stability, and matrix stability were assessed prior to initiation of the validation. Samples (5 µL) were injected onto the column and separated using gradient elution. Target compounds were quantified by summing the height of previously identified fragment peaks in the LC-MS [3] spectra. The serum concentrations were estimated using a calibration curve, accounting for the dilution factors and the probe recoveries for each experiment. Standards were matrix-matched to samples and underwent the same sample preparation steps.
# A noncompartmental analysis was used for parameter estimation. For PNA5 in plasma, the extravascular model was used for parameter estimation. For the rat study, all parameters were generated from PNA5 individual concentrations in plasma from days 1 and 28. Parameters were estimated using nominal dose levels and nominal sampling times relative to the dose administration. Plasma concentration values obtained at the pre-dose time point were used as the concentration at time 0 on days 1 and 28. For the dog study, all parameters were generated from PNA5 individual concentrations in plasma from days 1 and 28. Parameters were estimated using nominal dose levels and nominal sampling times relative to dose administration. Plasma concentration values obtained at the pre-dose time point were used as the concentration at time 0 on days 1 and 28. For Beagle dogs, concentration values reported as below the limit of quantitation (< 5 ng/mL) were assigned a value of 0.
# The toxicokinetic parameters evaluated included the area under the curve of the plasma PNA5 concentration against time from time 0 (pre-dose) to 2 h (post-dose) (AUC0–2hr), the maximum plasma concentration (Cmax), time to maximum plasma concentration (Tmax), elimination rate (Kel), and the half-life. The area under the concentration vs. time curve was calculated using the linear trapezoidal method with linear interpolation for all profiles with at least three consecutive quantifiable concentrations. Kel was calculated from the slope using exponential regression of concentration versus time (Excel); exponential interpolations for all profiles include at least three concentrations plotted against time. Time 0 values and all concentrations listed as zero were excluded from Kel calculations. The half-life was calculated from Kel via the following equation: half-life Ln(2)/Kel.
# [2] = Stability of dosing formulations; format: physicochemical; conditions: solutions in 0.9 % sodium chloride, 0.1 mg/mL and 10 mg/mL
# Experimental: The analyzed dosing formulations were within the protocol-specified range of target concentrations for solutions and were stable at 0.1 mg/mL and 10 mg/mL following 24 h of room temperature storage and following 9 days of refrigerated storage.
# The analyzed dosing formulations contained 95.5–108.7 % of the test article, which was within the protocol-specified range of target concentrations for solutions (90–110 %), and were stable at 0.1 mg/mL and 10 mg/mL following 24 h of room temperature storage and following 9 days of refrigerated storage. The test article was not detected in the analyzed vehicle formulation that was administered to the control groups.
# [3] = system: male Beagle dogs; test: Cardiovascular safety evaluation after a single subcutaneous dose in male Beagle dogs; format: in vivo, dog; conditions: single s.c. injection 1, 5 or 20 mg/kg
# Experimental: PNA5 -related cardiovascular effects were evaluated in male Beagle dogs at dose levels of 1, 5, or 20 mg/kg. To evaluate the effects of PNA5 when administered subcutaneously on the cardiovascular system the following parameters were measured including clinical observations, heart rate, arterial blood pressure (systolic, diastolic, and mean), pulse pressure, body temperature, and ECG waveforms (from which ECG waveform morphologies and ECG intervals PR, QRS, QT, and heart rate corrected QT [QTc] were derived).
# [4] = system: Beagle dogs; test: 28-day repeat-dose subcutaneous toxicology study (main and recovery) in Beagle dogs
# [5] = dogs, 1, 5, 20 mg/kg/day s.c. for 28 days
# [6] = dogs, main study, day 29 necropsy
smiles,measurement,setting,value
"CC[C@H](C)[C@H](NC(=O)[C@H](Cc1ccc(O)cc1)NC(=O)[C@@H](NC(=O)[C@H](CCCNC(=N)N)NC(=O)[C@@H](N)CC(=O)O)C(C)C)C(=O)N[C@@H](Cc1c[nH]cn1)C(=O)N[C@@H](CO[C@@H]1O[C@H](CO)[C@@H](O)[C@H](O)[C@H]1O)C(N)=O [PNA5, Ang-1–6-Ser-O-Glu-NH2] (H-DRVYIHS(βGlc)-NH2)",Tmax,"[1]; both, Beagle, dog, plasma, sc, 5 mg/kg/day, Tmax, dogs, plasma, s.c. 5 mg/kg/day, day 1, sexes combined",15 min
same,Tmax,"[1]; both, Beagle, dog, plasma, sc, 5 mg/kg/day, Tmax, dogs, plasma, s.c. 5 mg/kg/day, day 28, sexes combined",10 min
same,AUC(0-t),"[1]; both, Beagle, dog, plasma, sc, 20 mg/kg/day, AUC0–2, dogs, plasma, s.c. 20 mg/kg/day, day 1, sexes combined, mean ± SD, n = 10, linear trapezoidal",1270 ± 270 ng·h/mL
same,AUC(0-t),"[1]; both, Beagle, dog, plasma, sc, 20 mg/kg/day, AUC0–2, dogs, plasma, s.c. 20 mg/kg/day, day 28, sexes combined, mean ± SD, n = 10, linear trapezoidal",1080 ± 309 ng·h/mL
same,Cmax,"[1]; both, Beagle, dog, plasma, sc, 20 mg/kg/day, Cmax, Beagle dogs, plasma, s.c. once daily 20 mg/kg/day, day 1, sexes combined, mean ± SD, n = 10, UHPLC-MS/MS, noncompartmental",1440 ± 453 ng/mL
same,Cmax,"[1]; both, Beagle, dog, plasma, sc, 20 mg/kg/day, Cmax, Beagle dogs, plasma, s.c. once daily 20 mg/kg/day, day 28, sexes combined, mean ± SD, n = 10, UHPLC-MS/MS, noncompartmental",1120 ± 530 ng/mL
same,half-life,"[1]; both, Beagle, dog, plasma, sc, 20 mg/kg/day, dogs, plasma, s.c. 20 mg/kg/day, day 1, sexes combined, mean ± SD, n = 10, Ln(2)/Kel",41.4 ± 6 min
same,half-life,"[1]; both, Beagle, dog, plasma, sc, 20 mg/kg/day, dogs, plasma, s.c. 20 mg/kg/day, day 28, sexes combined, mean ± SD, n = 9, Ln(2)/Kel",48.6 ± 12.6 min
same,Tmax,"[1]; both, Beagle, dog, plasma, sc, 20 mg/kg/day, Tmax, dogs, plasma, s.c. 20 mg/kg/day, day 1, sexes combined",15 min
same,Tmax,"[1]; both, Beagle, dog, plasma, sc, 20 mg/kg/day, Tmax, dogs, plasma, s.c. 20 mg/kg/day, day 28, sexes combined",22.5 min
same,AUC0–2hr accumulation ratio,"[1]; dogs, 1 mg/kg/day",0.99
same,AUC0–2hr accumulation ratio,"[1]; dogs, 5 mg/kg/day",1.02
same,AUC0–2hr accumulation ratio,"[1]; dogs, 20 mg/kg/day",0.85
same,fold increase in AUC0–2hr for a 20-fold increase in dose,"[1]; dogs, day 1, sexes combined",~20.06 fold
same,fold increase in Cmax for a 20-fold increase in dose,"[1]; dogs, day 1, sexes combined",~13.06 fold
same,fold increase in AUC0–2hr for a 20-fold increase in dose,"[1]; dogs, day 28, sexes combined",~17.19 fold
same,fold increase in Cmax for a 20-fold increase in dose,"[1]; dogs, day 28, sexes combined",~7.70 fold
same,time post-dose up to which PNA5 was quantifiable,"[1]; dogs, plasma, 1 mg/kg/day",up to 1 h
same,time post-dose up to which PNA5 was quantifiable,"[1]; dogs, plasma, 5 and 20 mg/kg/day, last sampling time 2 h",up to 2 h
same,Kel,"[1]; dogs, plasma, s.c. 1 mg/kg/day, day 1, sexes combined, mean ± SD, n = 6, exponential regression","2.63 ± 0.97, 6 hr^–1"
same,Kel,"[1]; dogs, plasma, s.c. 1 mg/kg/day, day 28, sexes combined, mean ± SD, n = 6, exponential regression","2.87 ± 0.86, 6 hr^–1"
same,AUC0–2,"[1]; dogs, plasma, s.c. 1 mg/kg/day, day 28, sexes combined, mean ± SD, n = 6, linear trapezoidal","62.61 ± 19.05, 6 hr*ng/mL"
same,Tmax,"[1]; dogs, plasma, s.c. 1 mg/kg/day, day 28, sexes combined",0.167(0.083–0.25) hr
same,Kel,"[1]; dogs, plasma, s.c. 5 mg/kg/day, day 1, sexes combined, mean ± SD, n = 6, exponential regression","1.44 ± 0.33, 6 hr^–1"
same,Tmax,"[1]; dogs, plasma, s.c. 5 mg/kg/day, day 1, sexes combined",15 min
same,Kel,"[1]; dogs, plasma, s.c. 5 mg/kg/day, day 28, sexes combined, mean ± SD, n = 6, exponential regression","1.32 ± 0.43, 6 hr^–1"
same,Tmax,"[1]; dogs, plasma, s.c. 5 mg/kg/day, day 28, sexes combined",10 min
same,Kel,"[1]; dogs, plasma, s.c. 20 mg/kg/day, day 1, sexes combined, mean ± SD, n = 10, exponential regression","1.02 ± 0.17, 10 hr^–1"
same,Tmax,"[1]; dogs, plasma, s.c. 20 mg/kg/day, day 1, sexes combined",15 min
same,Kel,"[1]; dogs, plasma, s.c. 20 mg/kg/day, day 28, sexes combined, mean ± SD, n = 10, exponential regression","0.86 ± 0.35, 10 hr^–1"
same,AUC(0-t),"[1]; female, Beagle, dog, plasma, sc, 20 mg/kg/day, mean AUC0–2hr, females, dogs, females, 20 mg/kg/day (NOAEL), day 28",1150 ng·h/mL
same,Cmax,"[1]; female, Beagle, dog, plasma, sc, 20 mg/kg/day, mean Cmax, females, dogs, females, 20 mg/kg/day (NOAEL), day 28",1140 ng/mL
same,AUC(0-t),"[1]; male, Beagle, dog, plasma, sc, 20 mg/kg/day, mean AUC0–2hr, males, dogs, males, 20 mg/kg/day (NOAEL), day 28",1000 ng·h/mL
same,Cmax,"[1]; male, Beagle, dog, plasma, sc, 20 mg/kg/day, mean Cmax, males, dogs, males, 20 mg/kg/day (NOAEL), day 28",1100 ng/mL
same,stability of dosing formulations,[2]; 24 h of room temperature storage,stable
same,stability of dosing formulations,[2]; 9 days of refrigerated storage,stable
same,"clinical observations, heart rate, arterial blood pressure, pulse pressure, body temperature and ECG waveforms",[3],no effect
same,"tolerability (mortality, adverse findings)","[4]; Beagle dogs, main and recovery studies, s.c. bolus once daily 28 days, 1, 5, 20 mg/kg/day",well tolerated at all doses with no effects on mortality or adverse findings
same,no-observed-adverse-effect-level (NOAEL),"[4]; Beagle dogs, s.c. once daily for 28 days",20 mg/kg/day
same,body weights and body weight gains,[4]; [5],unaffected
same,clinical observations,[4]; [5],no test article-related clinical observations
same,electrocardiography,[4]; [5],no test article-related clinical observations or effects
same,food consumption,[4]; [5],unaffected
same,organ weights,[4]; [5],no test article-related clinical observations or effects
same,survival,"[4]; dogs, 1, 5 and 20 mg/kg/day s.c. for 28 days",All animals survived until the scheduled euthanasia
same,ophthalmic examinations,"[4]; dogs, all test article-treated groups",No ophthalmic lesions indicative of toxicity were observed
same,"hematology, coagulation, clinical chemistry and urinalysis parameters","[4]; dogs, main study",unaffected
same,macroscopic findings,[4]; [6],No test article-related macroscopic findings were noted
same,microscopic findings,[4]; [6],No test article-related microscopic findings were noted
same,macroscopic findings,"[4]; dogs, recovery study, day 43",No test article-related macroscopic findings were noted
same,microscopic findings,"[4]; dogs, recovery study, day 43",No test article-related microscopic findings were noted
same,organ weights,"[4]; dogs, recovery study, day 43",no test article-related organ weight changes
same,subcutaneous injection sites with dark red subcutaneous foci,"[4]; dogs, treated group animals, main study, lacked a dose response, considered an effect of subcutaneous injection",5 of 96
